Assay results: paper PMC7145534, “Are the intrinsically disordered linkers involved in SSB binding to accessory proteins?” (Nucleic Acids Research, 2019)
“Also recorded” adds a separate entry of the source.

Experiments:
E. coli RecO = test: ITC of SSB-Ct peptides binding to RecO; set-up: species or system Escherichia coli; conditions: 25°C
Method: (§1) The concentrations were determined thereafter.

DNA Pol III (χ) [1] = conditions: previous study; cited from earlier work
Excerpt: When DNA is bound to the DBD, the acidic tip no longer interacts with the DBD and thus is more available to interact with a SIP. This is supported by the observation that ΔH = −6.0 ± 0.1 kcal/mol for RecO binding to the SSBΔ120-166–(dT)70 complex, which should not contain contributions from the acidic tip-DBD intramolecular interactions.

DNA Pol III (χ) [2] = test: ITC of SSB-Ct peptides binding to the χ subunit; set-up: species or system Escherichia coli; conditions: pH 8.0, 50 mM NaCl, 25°C; N fixed to 1
Method: as §1

PriC = test: ITC of SSB-Ct peptides binding to PriC; set-up: species or system Escherichia coli; conditions: 25°C
Method: as §1

PriA [3] = conditions: pH 8.0, 50 mM NaCl, 25°C; N fixed to 1
Method: Isothermal titration calorimetry (ITC) experiments were performed using a VP-ITC titration microcalorimeter (Malvern Panalytical, Malvern, UK) ([68]). All proteins and oligonucleotides were dialyzed extensively against the indicated buffer and cleared by centrifugation at 14 000 rpm for 15 min at 4°C. The concentrations were determined thereafter. For experiments with the SSB-Ct peptides and SIPs, 40–50 μM peptides were titrated into 1–2 μM SIPs in Buffer BTP at pH 8.0 and 50 mM NaCl. For experiments with the full-length SSB and its deletion mutants and SIPs, SSB tetramer (8–10 μM) was titrated into SIP (1 μM) in Buffer BTP at pH 7.0 and 200 mM NaCl. The heats of dilution were obtained by blank titrations in which the titrant species is titrated into the buffer, and corrections for heats of dilution were applied.
The raw data were analyzed to obtain titration curves by integrating each peak from the time of titrant addition until equilibration back to the baseline using ‘MicroCal Data Analysis’ software provided by the manufacturer. […] The concentration of the free ligand (X) was obtained by solving Equation (2).(2)
In Equations (1) and (2), and are the total concentrations of the ligand and macromolecule, respectively, in the calorimetric cell after ith injection and X is the free ligand concentration. Nonlinear least-squares fitting of the data was performed using the same software. […]

PriA [4] = conditions: previous study; cited from earlier work
Method: All binding reactions were performed under identical solution conditions, although additional experiments were performed at a lower [NaCl] for PriC as indicated, ...

(dT)70 = test: ITC control of P65 peptide and (dT)70; type: binding; conditions: BTP pH 7.0, 20 mM NaCl, 25°C
Method: The concentrations were determined thereafter. […]
Figure S7. Results from various control ITC titrations of (a) SSB-A and RecO at 15°C and (b) 25°C, (c) SSB-A and c, (d) P65 and (dT)70, (e) (dT)70 and SSB-A, and (f) (dT)70 and wtSSB. (a) SSB-A (10 µM), a homo-tetrameric SSB variant containing an additional six amino acids, TGASGT, at the C-terminus of each subunit, was titrated into […]
(5.9 µM) was titrated into c (1 µM) in buffer T (10 mM Tris-HCl, pH 8.1, 200 mM NaCl, […]
0.1 mM EDTA) at 25° C. […] (d) dT70 (60 µM) was […]
titrated into P65 (2 µM) in buffer BTP (pH 7.0, 20 mM NaCl) at 25° C. P65, the full-length […]
(dT)70. (e) (dT)70 (15 µM) was titrated into SSB-A (1 µM) in buffer T at 25° C. SSB-A (also on this page, place not known: 15°C 25°C. 25°C. 25°C. 25°C. 2.00 kcal mol-1 of injectant kcal mol-1 of injectant [SSB-A]tot/[RecO]tot kcal mol-1 of injectant [SSB-A]tot/[c]tot (f)(d))

P15: SSB-Ct peptide, C-terminal 15 amino acids of E. coli SSB, contains acidic tip, no PXXP motifs (PSNEPPMDFDDDIPF)
K (E. coli RecO; BTP pH 7, 200 mM NaCl): (1.1 ± 0.1) × 10^6 M^−1 | K (equilibrium binding constant) (E. coli RecO; pH 8.0, 50 mM NaCl, N fixed to 1): (1.2 ± 0.3) × 10^7 M^−1 | binding to χ (DNA Pol III (χ) [1]): same affinity as P9 | K (equilibrium binding constant) (DNA Pol III (χ) [2]): (3.0 ± 0.1) × 10^5 M^−1 | K (equilibrium binding constant) (PriC; pH 8.0, 10 mM NaCl, N fixed to 1): (1.6 ± 0.1) × 10^6 M^−1 | binding detected by ITC (PriC; pH 8.0, 50 mM NaCl): undetectable; also recorded: showed no binding | K (equilibrium binding constant) (PriA [3]): (2.6 ± 0.1) × 10^5 M^−1 | binding to PriA (PriA [4]): same affinity as P9

B1: P65: SSB-Ct peptide, C-terminal 65 amino acids of SSB; acidic tip and the full IDL (peptide)
peptide: GGRQGGGAPAGGNIGGGQPQGGWGQPQQPQGGNQFSGGAQSRPQQSAPAAPSNEPPMDFDDDIPF
binding to (dT)70 by ITC ((dT)70): does not interact; also recorded: no detectable interaction
